{"source": "patent US20090036422A1", "about": "(priority 2007, published 2009)", "key": {"[1]": {"biological_target": "T1, human orexin-2 (hOX2) receptor (Homo sapiens, UniProt O43614)", "T1 construct": "expressed in transfected cells", "T1 sequence (O43614 1-444)": "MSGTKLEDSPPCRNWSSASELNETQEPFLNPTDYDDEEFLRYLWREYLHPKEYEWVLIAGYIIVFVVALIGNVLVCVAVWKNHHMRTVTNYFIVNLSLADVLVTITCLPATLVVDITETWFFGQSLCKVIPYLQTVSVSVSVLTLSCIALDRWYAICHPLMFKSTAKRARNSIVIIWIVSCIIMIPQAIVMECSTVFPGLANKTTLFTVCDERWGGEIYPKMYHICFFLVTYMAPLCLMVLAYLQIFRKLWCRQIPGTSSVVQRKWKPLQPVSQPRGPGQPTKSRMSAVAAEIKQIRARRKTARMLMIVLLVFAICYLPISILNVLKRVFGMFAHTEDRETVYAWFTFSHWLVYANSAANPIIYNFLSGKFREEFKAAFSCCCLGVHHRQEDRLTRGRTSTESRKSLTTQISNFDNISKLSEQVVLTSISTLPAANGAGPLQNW", "assay": "Intracellular Ca2+ mobilization assay (FLIPR), CHO(dHFr-) cells expressing hOX2, orexin-A at EC80 as agonist", "format": "cell-based", "conditions": "Kb=IC50/(1+[A]/EC50); CHO(dHFr-)-OX2R cells, antagonist applied 25 min before orexin-A EC80", "in_short": "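Fluo-4-loaded CHO(dHFr−) cells stably expressing hOX2 were preincubated 25 min at 37 °C with antagonist (11 concentrations, 0.0001–10 μM), then challenged with orexin-A at its daily-determined EC80. Peak fluorescence over basal read by FLIPR; IC50 from Hill fit, Kb via Kb=IC50/(1+[A]/EC50).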"}, "rat": {"tested_on": "rat", "conditions": "intracerebroventricular (icv) administration; cited from earlier work"}}, "note": "Structures can show the parent of a compound that is named as a salt."}
{"compound": "N[C@H](C(=O)N(CCc1ccc(F)cc1)c1ccc2c(c1)CCO2)c1ccccc1", "note": "[Example 239, (S)-2-Amino-N-(2,3-dihydro-benzofuran-5-yl)-N-[2-(4-fluoro-phenyl)-ethyl]-2-phenyl-acetamide hydrochloride]", "values": [{"measurement": "Kb", "setting": "[1]", "value": 0.025, "unit": "µM"}]}
{"compound": "N[C@H](C(=O)N(CCc1ccc(F)cc1)c1ccc2c(c1)OCC2)c1ccccc1", "note": "[Example 243, (S)-2-Amino-N-(2,3-dihydro-benzofuran-6-yl)-N-[2-(4-fluoro-phenyl)-ethyl]-2-phenyl-acetamide hydrochloride]", "values": [{"measurement": "Kb", "setting": "[1]", "value": 0.0604, "unit": "µM"}]}
{"compound": "CCc1ccc(N(CCc2ccc(F)cc2)C(=O)[C@@H](N)c2ccccc2)cc1", "note": "[Example 244, (S)-2-Amino-N-(4-ethyl-phenyl)-N-[2-(4-fluoro-phenyl)-ethyl]-2-phenyl-acetamide hydrochloride]", "values": [{"measurement": "Kb", "setting": "[1]", "value": 0.049, "unit": "µM"}]}
{"compound": "Cc1ccc(CCN(C(=O)[C@@H](NC(=O)CN)c2ccccc2)c2ccc(C)c(C)c2)cc1", "note": "[Example 248, (S)-2-(2-Amino-acetylamino)-N-(3,4-dimethyl-phenyl)-2-phenyl-N-(2-p-tolyl-ethyl)-acetamide]", "values": [{"measurement": "Kb", "setting": "[1]", "value": 0.0353, "unit": "µM"}]}
{"compound": "Cc1ccc(CCN(C(=O)[C@@H](NC(=O)[C@@H](N)c2ccccc2)c2ccccc2)c2ccc(C)c(C)c2)cc1", "note": "[Example 249, (S)-2-((S)-2-Amino-2-phenyl-acetylamino)-N-(3,4-dimethyl-phenyl)-2-phenyl-N-(2-p-tolyl-ethyl)-acetamide]", "values": [{"measurement": "Kb", "setting": "[1]", "value": 0.082, "unit": "µM"}]}
{"compound": "Cc1ccc(CCN(C(=O)[C@@H](NC(=O)[C@H](C)N)c2ccccc2)c2ccc(C)c(C)c2)cc1", "note": "[Example 251, (S)-2-Amino-N-{(S)-[(3,4-dimethyl-phenyl)-(2-p-tolyl-ethyl)-carbamoyl]-phenyl-methyl}-propionamide]", "values": [{"measurement": "Kb", "setting": "[1]", "value": 0.0102, "unit": "µM"}]}
{"compound": "OX-A: \"orexin-A/hypocretin1 (OX-A, 33 amino acids)\", hypothalamic neuropeptide; \"Orexin A ... was used as agonist\" (QPLPDCCRQKTCSCRLYELLHGAGNHAAGILTL; Orexin-A; UniProt O43612 34-66, looked up)", "values": [{"measurement": "reduction of total REM sleep", "setting": "rat", "value": 84, "unit": "%"}]}
